According to patent US7160685B2, “Diagnostic reagents for human cytomegalovirus and methods of use” (priority 1996, dated 2007):
Where no end group is shown, it is not given here. [ ]: non-standard residue; d: D form. Cha = N[C@@H](CC1CCCCC1)C(=O)O

How the values were obtained:
[1] = tested on: peptide-sensitized targets; experiment: single component lipid-HTL-CTL vaccine in transgenic HLA A2.1 mice, peptide-sensitized targets; type: in vivo, mouse; conditions: for lysis of p53149-157 sensitized targets by spleen cells of immunized mice / lysis of pp65495-503 peptide sensitized targets by spleen cells of immunized mice: 100 nmoles s.c. in 25% DMSO/PBS with 2.5% hexafluoroisopropanol
Procedure: (§1) Molecule A (SEQ ID NO:37) is a vaccine that has the capability of working in mice and humans, whereas molecule B (SEQ ID NO:38) should only be functional in mice. One hundred nanomoles of each of these vaccine peptides in 25% dimethysulfoxide in phosphate buffered saline with 2.5% hexafluoroisopropanol were injected s.c. into separate transgenic HLA A2.1 mice.
(§2) The methods referred to in Examples 9 and 10 were used to derive spleen cell populations containing cells which were specific against pp65 and HCMV. The spleen cells from immunized mice were tested for recognition and cytolysis against specific and non-specific peptide-sensitized targets, HCMV infected and non-infected HLA A*0201 and HLA-mismatched fibroblast targets. […] This stimulative effect of the booster is in agreement with B. Livingston et al., J. Immunol. 159:1383–1392 (1997)).

[2] = tested on: HCMV infected and non-infected HLA A*0201 and HLA-mismatched fibroblast targets; experiment: single component lipid-HTL-CTL vaccine in transgenic HLA A2.1 mice, fibroblast targets; type: in vivo, mouse; conditions: 100 nmoles s.c., no adjuvant
Procedure: as §1, §2

HLA A or B Allele = type: cell-based, human; conditions: for HLA A or B Allele Specificity: and subtypes where given

Substance | Number of Test Cell Lines (independent cell lines of the same restriction which were sensitized) (HLA A or B Allele) | HLA A or B Allele Specificity (HLA A or B Allele) | also measured
(Pam)2-KSSAKXVAAWTLKAAANLVPMVATV (KSSAK[Cha]VAAWTLKAAANLVPMVATV; not fully specified (residue 1, N-terminus); printed as (Pam)2-KSSAKXVAAWTLKAAANLVPMVATV; also: (Pam)2- two palmitoyl groups at N-terminal end, attachment not given here) [SEQ ID NO:37] | – | – | immune response after single immunization ([1]; 50 nmole, single immunization): not effective; immune response after second immunization (booster) ([1]; 50 nmole, with booster): detectable immune response; lysis of p53149-157 sensitized targets by spleen cells of immunized mice ([1]; no adjuvant): ineffective; lysis of pp65495-503 peptide sensitized targets by spleen cells of immunized mice ([1]; no adjuvant): effectively lysed; relative potency of molecules A and B ([1]; 100 nmoles s.c., no adjuvant): more potent of the two; lysis of HCMV-infected HLA A*0201 fibroblasts [2]: effectively lysed; lysis of uninfected or HLA-mismatched fibroblasts [2]: not recognized or lysed
FPTKDVAL [SEQ ID NO: 9] | 3 | HLA B*3502, | –
TPRVTGGGAM (listed as Human cytomegalovirus) [SEQ ID NO: 7] | 5 | HLA B7 | –
FVFPTKDVALR (listed as Human cytomegalovirus) [SEQ ID NO: 5] | 3 | HLA A*6801 | –
(Pam)2-KSSISQAVHAAHAEINEAAANLVPMVATV (also: two palmitoyl groups on the N-terminal lysine, exact amine positions not given here) [SEQ ID NO:38] | – | – | lysis of p53149-157 sensitized targets by spleen cells of immunized mice ([1]; no adjuvant): ineffective; lysis of pp65495-503 peptide sensitized targets by spleen cells of immunized mice ([1]; no adjuvant): effectively lysed; lysis of HCMV-infected HLA A*0201 fibroblasts [2]: effectively lysed; lysis of uninfected or HLA-mismatched fibroblasts [2]: not recognized or lysed
RPHERNGFTVL (listed as Human cytomegalovirus) [SEQ ID NO: 10] | 5 | HLA B7 | –
PTFTSQYRIQGKL (listed as Human cytomegalovirus) [SEQ ID NO: 12] | 3 | HLA B*3801/2 | –
FTSQYRIQGKL (listed as Human cytomegalovirus) [SEQ ID NO: 14] | 4 | HLA A*2402 | –
EFFWDANDIY (listed as Human cytomegalovirus) [SEQ ID NO: 13] | 2 | HLA B*44XX | –
SVLGPISGHVLK [SEQ ID NO: 11] | 5 | HLA A*1101 | –
